Data from the NIST ThermoML archive (doi:10.1021/acs.jced.6b00396).

Assay: xn = mol fraction of the nth substance listed
Settings: Gas, isochoric method

C=C(F)C(F)(F)F [2,3,3,3-tetrafluoro-1-propene] + CCC
Settings	specific volume [m3/kg]
268.15 K, 333 kPa, x2 = 0.709	0.095
273.15 K, 340.4 kPa, x2 = 0.709	0.095
278.15 K, 347.7 kPa, x2 = 0.709	0.095
278.15 K, 366.9 kPa, x2 = 0.505	0.072
283.15 K, 354.8 kPa, x2 = 0.709	0.095
283.15 K, 374.9 kPa, x2 = 0.505	0.072
288.13 K, 614.2 kPa, x2 = 0.611	0.047
288.15 K, 382.8 kPa, x2 = 0.505	0.072
288.16 K, 362 kPa, x2 = 0.709	0.095
288.16 K, 449 kPa, x2 = 0.23	0.048
293.15 K, 369.3 kPa, x2 = 0.709	0.095
293.15 K, 390.7 kPa, x2 = 0.505	0.072
293.15 K, 459.2 kPa, x2 = 0.23	0.048
293.17 K, 628.3 kPa, x2 = 0.611	0.047
298.15 K, 376.6 kPa, x2 = 0.709	0.095
298.15 K, 398.5 kPa, x2 = 0.505	0.072
298.15 K, 470.2 kPa, x2 = 0.23	0.048
298.15 K, 642.2 kPa, x2 = 0.611	0.047
298.15 K, 807.3 kPa, x2 = 0.839	0.047
303.15 K, 383.9 kPa, x2 = 0.709	0.095
303.15 K, 406.7 kPa, x2 = 0.505	0.072
303.15 K, 479.7 kPa, x2 = 0.23	0.048
303.15 K, 656.1 kPa, x2 = 0.611	0.047
303.15 K, 825.7 kPa, x2 = 0.839	0.047
308.15 K, 391 kPa, x2 = 0.709	0.095
308.15 K, 414.4 kPa, x2 = 0.505	0.072
308.15 K, 489.4 kPa, x2 = 0.23	0.048
308.15 K, 669.8 kPa, x2 = 0.611	0.047
308.15 K, 844 kPa, x2 = 0.839	0.047
313.15 K, 398.2 kPa, x2 = 0.709	0.095
313.15 K, 422.1 kPa, x2 = 0.505	0.072
313.15 K, 499.1 kPa, x2 = 0.23	0.048
313.15 K, 683.5 kPa, x2 = 0.611	0.047
313.15 K, 862.2 kPa, x2 = 0.839	0.047
318.15 K, 405.3 kPa, x2 = 0.709	0.095
318.15 K, 429.8 kPa, x2 = 0.505	0.072
318.15 K, 508.7 kPa, x2 = 0.23	0.048
318.15 K, 697.1 kPa, x2 = 0.611	0.047
318.15 K, 880.3 kPa, x2 = 0.839	0.047
323.15 K, 412.4 kPa, x2 = 0.709	0.095
323.15 K, 437.5 kPa, x2 = 0.505	0.072
323.15 K, 518.3 kPa, x2 = 0.23	0.048
323.15 K, 710.9 kPa, x2 = 0.611	0.047
323.15 K, 898.3 kPa, x2 = 0.839	0.047
328.15 K, 419.5 kPa, x2 = 0.709	0.095
328.15 K, 445.3 kPa, x2 = 0.505	0.072
328.15 K, 527.8 kPa, x2 = 0.23	0.048
328.15 K, 724.4 kPa, x2 = 0.611	0.047
328.15 K, 916.2 kPa, x2 = 0.839	0.047
333.15 K, 426.6 kPa, x2 = 0.709	0.095
333.15 K, 452.9 kPa, x2 = 0.505	0.072
333.15 K, 537.3 kPa, x2 = 0.23	0.048
333.15 K, 737.9 kPa, x2 = 0.611	0.047
333.15 K, 934 kPa, x2 = 0.839	0.047
338.15 K, 433.8 kPa, x2 = 0.709	0.095
338.15 K, 460.5 kPa, x2 = 0.505	0.072
338.15 K, 546.7 kPa, x2 = 0.23	0.048
338.15 K, 751.3 kPa, x2 = 0.611	0.047
338.15 K, 951.8 kPa, x2 = 0.839	0.047
343.15 K, 440.8 kPa, x2 = 0.709	0.095
343.15 K, 468.1 kPa, x2 = 0.505	0.072
343.15 K, 556.2 kPa, x2 = 0.23	0.048
343.15 K, 764.6 kPa, x2 = 0.611	0.047
343.15 K, 969.5 kPa, x2 = 0.839	0.047
348.14 K, 778 kPa, x2 = 0.611	0.047
348.15 K, 447.9 kPa, x2 = 0.709	0.095
348.15 K, 475.6 kPa, x2 = 0.505	0.072
348.15 K, 565.8 kPa, x2 = 0.23	0.048
348.15 K, 987.1 kPa, x2 = 0.839	0.047
353.15 K, 454.9 kPa, x2 = 0.709	0.095
353.15 K, 483.2 kPa, x2 = 0.505	0.072
353.15 K, 575.1 kPa, x2 = 0.23	0.048
353.15 K, 791.3 kPa, x2 = 0.611	0.047
353.15 K, 1004.6 kPa, x2 = 0.839	0.047
358.15 K, 462 kPa, x2 = 0.709	0.095
358.15 K, 490.8 kPa, x2 = 0.505	0.072
358.15 K, 584.5 kPa, x2 = 0.23	0.048
358.15 K, 804.5 kPa, x2 = 0.611	0.047
358.15 K, 1022.2 kPa, x2 = 0.839	0.047
363.15 K, 469 kPa, x2 = 0.709	0.095
363.15 K, 498.3 kPa, x2 = 0.505	0.072
363.15 K, 593.8 kPa, x2 = 0.23	0.048
363.15 K, 817.7 kPa, x2 = 0.611	0.047
363.16 K, 1039.6 kPa, x2 = 0.839	0.047
